Reference: ChEMBL document CHEMBL3045547, “Synthesis, characterization and antimicrobial screening of hybrid molecules containing benzimidazole-pyrazole and pyridine nucleus” (2012)
≈ marks a conversion by molar mass, not a printed value.

What was measured:
Assay type in all cases: functional
Staphylococcus aureus = experiment: Antimicrobial activity against Staphylococcus aureus MTCC 96 after 24 to 48 hr by serial broth dilution method
Escherichia coli = experiment: Antimicrobial activity against Escherichia coli MTCC 443 after 24 to 48 hr by serial broth dilution method
Aspergillus clavatus = experiment: Antimicrobial activity against Aspergillus clavatus MTCC 1323 after 72 hr by serial broth dilution method; settings: MTCC 1323, 72 h
Aspergillus niger = experiment: Antimicrobial activity against Aspergillus niger MTCC 282 serial after 72 hr by broth dilution method; settings: MTCC 282, 72 h
Pseudomonas aeruginosa = experiment: Antimicrobial activity against Pseudomonas aeruginosa MTCC 1688 after 24 to 48 hr by serial broth dilution method
Candida albicans = experiment: Antimicrobial activity against Candida albicans MTCC 227 after 72 hr by serial broth dilution method; settings: MTCC 227, 72 h
Streptococcus pyogenes = experiment: Antimicrobial activity against Streptococcus pyogenes MTCC 442 after 24 to 48 hr by serial broth dilution method

| SMILES | MIC (Staphylococcus aureus) [µg/mL] | MIC (Escherichia coli) [µg/mL] | MIC (Aspergillus clavatus) [µg/mL] | MIC (Aspergillus niger) [µg/mL] | MIC (Pseudomonas aeruginosa) [µg/mL] | MIC (Candida albicans) [µg/mL] | MIC (Streptococcus pyogenes) [µg/mL] |
| --- | --- | --- | --- | --- | --- | --- | --- |
| CN(C)c1ccc(C2CC(c3nc4ccccc4[nH]3)=NN2C(=O)c2ccncc2)cc1 (stereo not given) | 250 (≈ 609 µM) | 250 (≈ 609 µM) | 100 (≈ 244 µM) | 25 (≈ 60.9 µM) | 100 (≈ 244 µM) | 1000 (≈ 2440 µM) | 250 (≈ 609 µM) |
| O=C(c1ccncc1)N1N=C(c2nc3ccccc3[nH]2)CC1c1ccc(O)cc1 (stereo not given) | 250 (≈ 652 µM) | 25 (≈ 65.2 µM) | 1000 (≈ 2610 µM) | 1000 (≈ 2610 µM) | 250 (≈ 652 µM) | 100 (≈ 261 µM) | 250 (≈ 652 µM) |
| CC1(C)S[C@@H]2[C@H](NC(=O)[C@H](N)c3ccccc3)C(=O)N2[C@H]1C(=O)O [AMPICILLIN] | 250 (≈ 715 µM) | 100 (≈ 286 µM) | – | – | 100 (≈ 286 µM) | – | 100 (≈ 286 µM) |
| O=C(c1ccncc1)N1N=C(c2nc3ccccc3[nH]2)CC1c1ccccc1Cl (stereo not given) | 250 (≈ 622 µM) | 100 (≈ 249 µM) | 1000 (≈ 2490 µM) | 1000 (≈ 2490 µM) | 500 (≈ 1240 µM) | 500 (≈ 1240 µM) | 500 (≈ 1240 µM) |
| COc1cc(C2CC(c3nc4ccccc4[nH]3)=NN2C(=O)c2ccncc2)ccc1O (stereo not given) | 100 (≈ 242 µM) | 250 (≈ 605 µM) | 200 (≈ 484 µM) | 100 (≈ 242 µM) | 500 (≈ 1210 µM) | 500 (≈ 1210 µM) | 100 (≈ 242 µM) |
| O=C(c1ccncc1)N1N=C(c2nc3ccccc3[nH]2)CC1c1cccc([N+](=O)[O-])c1 (stereo not given) | 500 (≈ 1210 µM) | 100 (≈ 242 µM) | 100 (≈ 242 µM) | 200 (≈ 485 µM) | 100 (≈ 242 µM) | 500 (≈ 1210 µM) | 500 (≈ 1210 µM) |
| O=C(c1ccncc1)N1N=C(c2nc3ccccc3[nH]2)CC1c1ccc(Br)cc1 (stereo not given) | 250 (≈ 560 µM) | 250 (≈ 560 µM) | 1000 (≈ 2240 µM) | 1000 (≈ 2240 µM) | 250 (≈ 560 µM) | 1000 (≈ 2240 µM) | 250 (≈ 560 µM) |
| COc1ccc(C2CC(c3nc4ccccc4[nH]3)=NN2C(=O)c2ccncc2)cc1 (stereo not given) | 125 (≈ 315 µM) | 100 (≈ 252 µM) | 500 (≈ 1260 µM) | 200 (≈ 503 µM) | 50 (≈ 126 µM) | 500 (≈ 1260 µM) | 200 (≈ 503 µM) |
| O=C(c1ccncc1)N1N=C(c2nc3ccccc3[nH]2)CC1c1ccccc1O (stereo not given) | 125 (≈ 326 µM) | 500 (≈ 1300 µM) | 100 (≈ 261 µM) | 1000 (≈ 2610 µM) | 100 (≈ 261 µM) | 100 (≈ 261 µM) | 100 (≈ 261 µM) |

Continued, values first:

| MIC (Staphylococcus aureus) [µg/mL] | MIC (Escherichia coli) [µg/mL] | MIC (Aspergillus clavatus) [µg/mL] | MIC (Aspergillus niger) [µg/mL] | MIC (Pseudomonas aeruginosa) [µg/mL] | MIC (Candida albicans) [µg/mL] | MIC (Streptococcus pyogenes) [µg/mL] | SMILES |
| --- | --- | --- | --- | --- | --- | --- | --- |
| 500 (≈ 1300 µM) | 500 (≈ 1300 µM) | 500 (≈ 1300 µM) | 200 (≈ 519 µM) | 100 (≈ 259 µM) | 500 (≈ 1300 µM) | 100 (≈ 259 µM) | O=C(c1ccncc1)N1N=C(c2nc3ccccc3[nH]2)CC1c1ccc(F)cc1 (stereo not given) |
| 100 (≈ 261 µM) | 100 (≈ 261 µM) | 500 (≈ 1300 µM) | 100 (≈ 261 µM) | 25 (≈ 65.2 µM) | 500 (≈ 1300 µM) | 50 (≈ 130 µM) | O=C(c1ccncc1)N1N=C(c2nc3ccccc3[nH]2)CC1c1cccc(O)c1 (stereo not given) |
| 100 (≈ 262 µM) | 25 (≈ 65.5 µM) | 1000 (≈ 2620 µM) | 1000 (≈ 2620 µM) | 50 (≈ 131 µM) | 1000 (≈ 2620 µM) | 250 (≈ 655 µM) | Cc1ccc(C2CC(c3nc4ccccc4[nH]3)=NN2C(=O)c2ccncc2)cc1 (stereo not given) |
| 250 (≈ 680 µM) | 250 (≈ 680 µM) | 500 (≈ 1360 µM) | 200 (≈ 544 µM) | 500 (≈ 1360 µM) | 250 (≈ 680 µM) | 100 (≈ 272 µM) | O=C(c1ccncc1)N1N=C(c2nc3ccccc3[nH]2)CC1c1ccccc1 (stereo not given) |
| 250 (≈ 622 µM) | 500 (≈ 1240 µM) | 1000 (≈ 2490 µM) | 1000 (≈ 2490 µM) | 500 (≈ 1240 µM) | 1000 (≈ 2490 µM) | 250 (≈ 622 µM) | O=C(c1ccncc1)N1N=C(c2nc3ccccc3[nH]2)CC1c1ccc(Cl)cc1 (stereo not given) |
| 500 (≈ 1210 µM) | 50 (≈ 121 µM) | 100 (≈ 242 µM) | 200 (≈ 485 µM) | 500 (≈ 1210 µM) | 500 (≈ 1210 µM) | 500 (≈ 1210 µM) | O=C(c1ccncc1)N1N=C(c2nc3ccccc3[nH]2)CC1c1ccc([N+](=O)[O-])cc1 (stereo not given) |
| – | – | 100 (≈ 283 µM) | 100 (≈ 283 µM) | – | 500 (≈ 1420 µM) | – | COC1=CC(=O)C[C@@H](C)[C@]12Oc1c(Cl)c(OC)cc(OC)c1C2=O [GRISEOFULVIN] |
